Usually Kd stands for the concentration at which binding is half-saturated.

The target in the assay is SBA (soybean agglutinin) (Glycine max, UniProt P05046). The assay can be described thus: Surface plasmon resonance (SPR) binding to immobilized SBA. The procedure: Assay: surface plasmon resonance (SPR) experiments were performed on the Biacore T200 at 25° C. using a functionalized CM5 sensor chip. Protein immobilization was performed according to the instrument build-in wizard template. The CM5 sensor chip was activated with a solution containing N-ethyl-N′-(3-[…])-carbodiimide (EDC) (0.2 M) and N-hydroxysuccinimide (NHS) (0.05 M). HPA (10 μg/mL) in NaOAc buffer (pH 6) or SBA (10 μg/mL) in NaOAc buffer (pH 4) was injected over the activated flow cell at flow rate of 10 μL/min for 420 s. Then 1 M ethanolamine at pH 8.5 was injected to block the remaining activated groups. Binding assays were performed with HBS-P+(10 mM HEPES, 150 mM NaCI, 0.05% tween 20, pH 7.4) for HPA or 10 mM HEPES, 150 mM NaCl, 0.05% tween 20, and 100 μM CaCl2, 0.05% tween 20, pH 7.5 for SBA as running buffer. Protein modulator for test (COM1, SL4, SL5 and SL6) were injected onto the surface, with several concentrations of ranging from 6.25 nM to 100 nM for protein modulator COM1 and 10 nM to 160 nM for protein modulators SL4, SL5 and SL6 to HPA or from 62.5 nM to 1000 nM for protein modulator COM1 and 100 nM to 1600 nM for protein modulators SL4, SL5 and SL6 to SBA at the rate of 30 μL/min diluted in the running buffer. The surface was regenerated by 30 s injection of 300 mM GlcNAc for HPA or 100 mM methyl β-D-galactopyranoside for LecA. The sensorgrams were reference subtracted, quality controlled and analyzed by Biacore T200 Evaluation Software, and the kinetic parameters were obtained by fitting curves to 1:1 Langmuir model.
In general terms: In SPR one partner is held on a chip, and binding of the other changes the refractive index at the surface.

Where two headings read alike, the source gives them in different places. *1 amine or outer side, *2 acyl side, *3 side chain or, on linkers, in order; H or OH if unused. Where a SMILES comes first, the peptide text is derived from it. [ ]: non-standard residue; d: D form. The star is where a group is joined. Pro(trans-4-NH2) = O=C([C@@H]1C[C@@H](N[*:3])CN1[*:1])[*:2]; X2 = CC(=O)NC1C(OCCn2cc(CCC(=O)*)nn2)OC(CO)C(O)C1O; X1 = O=C(CCCn1cc(CN[*:1])nn1)[*:2]

Sequence of SBA (soybean agglutinin) (P05046 33-285): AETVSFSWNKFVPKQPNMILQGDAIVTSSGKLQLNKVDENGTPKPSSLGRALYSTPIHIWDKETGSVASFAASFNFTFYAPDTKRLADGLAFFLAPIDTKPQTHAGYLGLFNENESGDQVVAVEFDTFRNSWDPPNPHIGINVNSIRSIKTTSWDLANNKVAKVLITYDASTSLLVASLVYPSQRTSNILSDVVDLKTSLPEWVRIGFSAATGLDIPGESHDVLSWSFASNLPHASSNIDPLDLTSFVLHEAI

Molecule `CC(=O)NC1C(OCCn2cc(CCC(=O)N[C@@H]3C[C@H]4C(=O)N5CCC[C@H]5C(=O)N5CCC[C@H]5C(=O)N5CCC[C@H]5C(=O)N5CCC[C@H]5C(=O)N5CCC[C@H]5C(=O)N5CCC[C@H]5C(=O)N5CCC[C@H]5C(=O)N5CCC[C@H]5C(=O)NCc5cn(nn5)CCCC(=O)N5CCC[C@H]5C(=O)N5CCC[C@H]5C(=O)N5CCC[C@H]5C(=O)N5CCC[C@H]5C(=O)N5CCC[C@H]5C(=O)N5CCC[C@H]5C(=O)N5CCC[C@H]5C(=O)N5CCC[C@H]5C(=O)N5CCC[C@H]5C(=O)NCc5cn(nn5)CCCC(=O)N5C[C@H](NC(=O)CCc6cn(CCOC7OC(CO)C(O)C(O)C7NC(C)=O)nn6)C[C@H]5C(=O)N5CCC[C@H]5C(=O)N5CCC[C@H]5C(=O)N5CCC[C@H]5C(=O)N5CCC[C@H]5C(=O)N5CCC[C@H]5C(=O)N5C[C@H](NC(=O)CCc6cn(CCOC7OC(CO)C(O)C(O)C7NC(C)=O)nn6)C[C@H]5C(=O)N5CCC[C@H]5C(=O)N5CCC[C@H]5C(=O)NCc5cn(nn5)CCCC(=O)N4C3)nn2)OC(CO)C(O)C1O` (stereo partly drawn) [SL5] (cyclo(PPPPPPPPP[X1][Pro(trans-4-NH2)](X2)PPPPP[Pro(trans-4-NH2)](X2)PP[X1][Pro(trans-4-NH2)](X2)PPPPPPPP[X1])) showed a Kd of 138 nM.

Turning to `CC(=O)NC1C(OCCn2cc(CCC(=O)N[C@@H]3C[C@H]4C(=O)N5CCC[C@H]5C(=O)N5CCC[C@H]5C(=O)N5CCC[C@H]5C(=O)N5CCC[C@H]5C(=O)N5CCC[C@H]5C(=O)N5CCC[C@H]5C(=O)N5CCC[C@H]5C(=O)N5CCC[C@H]5C(=O)NCc5cn(nn5)CCCC(=O)N5C[C@H](NC(=O)CCc6cn(CCOC7OC(CO)C(O)C(O)C7NC(C)=O)nn6)C[C@H]5C(=O)N5CCC[C@H]5C(=O)N5CCC[C@H]5C(=O)N5CCC[C@H]5C(=O)N5CCC[C@H]5C(=O)N5CCC[C@H]5C(=O)N5CCC[C@H]5C(=O)N5CCC[C@H]5C(=O)N5CCC[C@H]5C(=O)NCc5cn(nn5)CCCC(=O)N5C[C@H](NC(=O)CCc6cn(CCOC7OC(CO)C(O)C(O)C7NC(C)=O)nn6)C[C@H]5C(=O)N5CCC[C@H]5C(=O)N5CCC[C@H]5C(=O)N5CCC[C@H]5C(=O)N5CCC[C@H]5C(=O)N5CCC[C@H]5C(=O)N5CCC[C@H]5C(=O)N5CCC[C@H]5C(=O)N5CCC[C@H]5C(=O)NCc5cn(nn5)CCCC(=O)N4C3)nn2)OC(CO)C(O)C1O` (stereo partly drawn) [SL4] (cyclo(PPPPPPPP[X1][Pro(trans-4-NH2)](X2)PPPPPPPP[X1][Pro(trans-4-NH2)](X2)PPPPPPPP[X1][Pro(trans-4-NH2)](X2))), the dissociation constant (Kd) was determined as 98.1 nM.

As for `CC(=O)NC1C(OCCn2cc(CCC(=O)N[C@@H]3C[C@H]4C(=O)N5CCC[C@H]5C(=O)N5CCC[C@H]5C(=O)N5C[C@H](NC(=O)CCc6cn(CCOC7OC(CO)C(O)C(O)C7NC(C)=O)nn6)C[C@H]5C(=O)N5CCC[C@H]5C(=O)N5CCC[C@H]5C(=O)N5C[C@H](NC(=O)CCc6cn(CCOC7OC(CO)C(O)C(O)C7NC(C)=O)nn6)C[C@H]5C(=O)N5CCC[C@H]5C(=O)N5CCC[C@H]5C(=O)NCc5cn(nn5)CCCC(=O)N5CCC[C@H]5C(=O)N5CCC[C@H]5C(=O)N5CCC[C@H]5C(=O)N5CCC[C@H]5C(=O)N5CCC[C@H]5C(=O)N5CCC[C@H]5C(=O)N5CCC[C@H]5C(=O)N5CCC[C@H]5C(=O)N5CCC[C@H]5C(=O)NCc5cn(nn5)CCCC(=O)N5CCC[C@H]5C(=O)N5CCC[C@H]5C(=O)N5CCC[C@H]5C(=O)N5CCC[C@H]5C(=O)N5CCC[C@H]5C(=O)N5CCC[C@H]5C(=O)N5CCC[C@H]5C(=O)N5CCC[C@H]5C(=O)N5CCC[C@H]5C(=O)NCc5cn(nn5)CCCC(=O)N4C3)nn2)OC(CO)C(O)C1O` (stereo partly drawn) [SL6] (cyclo(PPPPPPPPP[X1]PPPPPPPPP[X1][Pro(trans-4-NH2)](X2)PP[Pro(trans-4-NH2)](X2)PP[Pro(trans-4-NH2)](X2)PP[X1])), the Kd amounted to 255 nM.

Turning to `CC(=O)NC1C(OCCn2cc(CNC(=O)CCOCC(COCCC(=O)NCc3cn(CCOC4OC(CO)C(O)C(O)C4NC(C)=O)nn3)(COCCC(=O)NCc3cn(CCOC4OC(CO)C(O)C(O)C4NC(C)=O)nn3)NC(=O)COCCOCCN)nn2)OC(CO)C(O)C1O` (stereo not shown) [COM1, reference compound], the Kd (SPR, Biacore T200, 25° C., SBA immobilized on CM5 chip, HEPES buffer with 100 μM CaCl2 pH 7.5, 1:1 Langmuir model, read-out: KD(nM) SBA) is 61.2 nM.

Values taken from patent US10443026B2, “Polygonal scaffold and manufacturing method thereof, and protein modulator and manufacturing method thereof” (NATIONAL TSING HUA UNIVERSITY, priority 2017, dated 2019).
